Results taken from patent US10517964B2, “Optical imaging probes, optical imaging systems, methods of optical imaging, and methods of using optical imaging probes” (priority 2011, dated 2019).

How the values were obtained:
primary bladder tumor = primary bladder tumor in humans; cited from earlier work
C6-fluc tumors = assay: in vivo radioactive OI and microPET of mice bearing C6-fluc glioma
Method: [^18F]FDG has been widely used for imaging tumor metabolism^2,13,14, and Na^18F can accumulate in the bone^14. In this study, a group of mice (n=3) were implanted with firefly luciferase (fluc) transfected rat C6 glioma (C6-fluc). A day prior to the radioactive imaging, the mice were given with luciferin and bioluminescence OI was performed to verify the presence of tumor (FIG. 1.3a). Then [^18F]FDG was injected to the mice bearing C6-fluc glioma and imaged sequentially with IVIS Spectrum (FIG. 1.3b) and microPET (FIG. 1.3c). […] High imaging signals from bladder and brain were also observed by both modalities. But heart was hardly visible in the radioactive OI because it localizes deep inside of the mice body. After we sacrificed and open the thorax of the mice, the heart could be easily identified (FIG. 1.3d, yellow arrow). To further characterize the distribution of [^18F]FDG using radioactive OI, tumors and other normal organs and tissues were removed from the mice sacrificed and subjected to IVIS Spectrum imaging.
Quantitative analysis of both radioactive OI and microPET images was performed. The OI intensities in the tumor and the normal tissue as a function of time for [^18F]FDG was depicted in FIG. 1.3f, while the radioactivity accumulation in tumor and muscle over time was shown in FIG. 1.3g. […] Finally, regression analysis was performed for the tumor uptakes obtained from two imaging modalities, in order to further evaluate the quantitative analysis data obtained from radioactive OI. Good correlation was seen between the radioactive OI signal intensities and microPET images derived tumor uptakes (FIG. 1.3h, r^2 over 0.90 for the analyses). […]
Radioactive optical imaging: In vivo radioactive OI was also performed with an IVIS Spectrum system. […] Images were acquired and analyzed using Living Image 3.0 software (Caliper life sciences, Hopkinton, Mass.). Quantification of Radioactive OI images was corrected in accordance with radionuclides' respective physical decay properties. […]

C6 glioma tumor = assay: Cerenkov luminescence imaging with 6 mm fiber optic bundle in mice bearing C6 glioma; type: in vivo; conditions: n=4
Source text: Typical optical endoscopy imaging system includes an endoscope (usually made out of optical fibers and/or optical lenses such as grin/rod lenses), a white light source, and a CCD camera that is connected to the computer monitor. […] The subject “S” was placed […] the field of view (FOV) of the imaging system. The input end of the OF was placed close to the subject “S”. The output end of the “OF” faced the CCD camera such that the image transmitted by the output end was imaged on to the CCD camera using a relay lens system. The optical signal was normalized to photons per second per centimeter square per steradian (p/s/cm^2/sr). Identical settings were used for both in vitro and living mouse experiments.
^18F-FDG was produced by the Radiochemistry Facility at Stanford University using standard procedures. […] A CRC-15R PET dose calibrator (Capintec Inc., Ramseb, N.J.) was used for all radioactivity measurements. […]
To further characterize the distribution of ^18F-FDG, tumors and other organs were removed from the sacrificed mice (n=4) and subjected to fiber optic imaging as mentioned above. Inset figure on top right corner of each organ in FIG. 3.6(a) represents average Cerenkov radiance detected by a 6 mm fiber optic bundle. FIG. 3.6(b) represents biodistribution of ^18F-FDG in various tissues at one hour post injection in mice as measured using optical signals from radionuclides. […]

Question: For “2-deoxy-2-[^18F]fluoro-D-glucose [[^18F]FDG]”, which “standard uptake value (SUV)” value (primary bladder tumor) is on record?
Answer: ~4.5

Question: And the “tumor uptake over time” value (C6-fluc tumors; from 0.5-2 h)?
Answer: increased over time

Question: What about the tumor localization (C6-fluc tumors; radioactive OI and microPET, 0.5-2 h p.i.) of the same substance?
Answer: preferentially localized and was retained in C6-fluc tumors

Question: What about the “ex vivo distribution in tumors and normal organs” value (C6-fluc tumors; radioactive OI of removed tissues, 2.1 h p.i.) of the same substance?
Answer: High activity was mainly observed from the tumor and heart tissue samples

Question: And the “in vivo tracer uptake by fiber bundle signal” value (C6 glioma tumor; 900 μCi i.v., 90 minutes post-injection)?
Answer: Relatively high signals from the subcutaneous tumor and brain

Question: What about the “ex vivo tissue distribution by fiber bundle signal” value (C6 glioma tumor; one hour post injection) of the same substance?
Answer: High signal was mainly observed from the tumor, heart, brain, and kidney tissue samples
